Test results as given in ChEMBL document CHEMBL1123683 (J Med Chem, 1987).

Legend:
[1] = target: Prostaglandin G/H synthase 1 (Ovis aries) (UniProt P05979); test: Inhibition of microsomal PGH synthase isolated from sheep seminal vesicles (SSV) estimated as rate of oxygen consumption in presence of 500 uM of the compound; Compound was found to be insoluble
[2] = target: Prostaglandin G/H synthase 1 (Ovis aries) (UniProt P05979); test: Inhibition of microsomal PGH synthase isolated from sheep seminal vesicles (SSV) estimated as rate of oxygen consumption in presence of 100 uM of the compound
[3] = target: Prostaglandin G/H synthase 1 (Ovis aries) (UniProt P05979); details: at 500 µM
[4] = target: Prostaglandin G/H synthase 1 (Ovis aries) (UniProt P05979); test: Inhibition of PGH synthase in sheep seminal vesicle microsomes
[5] = target: Prostaglandin G/H synthase 1 (Ovis aries) (UniProt P05979); test: Inhibition of microsomal PGH synthase isolated from sheep seminal vesicles (SSV) estimated as rate of oxygen consumption in presence of 500 uM of the compound; design: scale not given: the % may be the effect or the level left
[6] = target: Prostaglandin G/H synthase 1 (Ovis aries) (UniProt P05979); test: Inhibition of microsomal PGH synthase isolated from sheep seminal vesicles (SSV) estimated as rate of oxygen consumption in presence of 100 uM of the compound; design: scale not given: the % may be the effect or the level left

Prostaglandin G/H synthase 1 (Ovis aries), sequence (P05979 whole entry, looked up): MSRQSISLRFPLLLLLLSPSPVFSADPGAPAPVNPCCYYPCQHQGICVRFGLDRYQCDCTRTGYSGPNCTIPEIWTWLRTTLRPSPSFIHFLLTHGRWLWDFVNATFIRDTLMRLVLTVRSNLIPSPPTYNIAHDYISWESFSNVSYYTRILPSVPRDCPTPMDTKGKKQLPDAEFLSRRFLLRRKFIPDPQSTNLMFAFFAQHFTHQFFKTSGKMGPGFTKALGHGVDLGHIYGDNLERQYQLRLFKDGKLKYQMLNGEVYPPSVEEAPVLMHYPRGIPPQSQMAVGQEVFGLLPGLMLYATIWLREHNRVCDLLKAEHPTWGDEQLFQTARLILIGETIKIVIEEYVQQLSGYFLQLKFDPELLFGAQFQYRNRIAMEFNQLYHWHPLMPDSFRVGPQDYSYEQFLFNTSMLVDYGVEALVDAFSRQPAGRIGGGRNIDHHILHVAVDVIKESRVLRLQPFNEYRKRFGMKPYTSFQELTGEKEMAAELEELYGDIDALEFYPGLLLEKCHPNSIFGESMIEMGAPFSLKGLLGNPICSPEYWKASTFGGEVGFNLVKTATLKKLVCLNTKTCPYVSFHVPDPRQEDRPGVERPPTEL

| SMILES | Control [1] | Oxygen consumption rate, % of control [2] [%] | Control [3] [%] | IC50 [4] [µM] | Control [5] | Control [6] [%] |
| --- | --- | --- | --- | --- | --- | --- |
| CCCCC(C(=O)Nc1ccccc1)C(=O)Nc1ccccc1 | Insoluble | 105 | – | – | – | – |
| CCCCC(C(=O)Nc1ccc(OC)cc1)C(=O)Nc1ccc(OC)cc1 | Insoluble | 102 | – | – | – | – |
| O=C(CC(=O)Nc1ccc([N+](=O)[O-])cc1)Nc1ccc([N+](=O)[O-])cc1 | – | – | – | – | 88% | – |
| COc1ccc(NC(=O)CC(=O)Nc2ccc(OC)cc2)cc1 | Insoluble | 78 | – | – | – | – |
| CCCCC(C(=O)Nc1ccc(O)cc1)C(=O)Nc1ccc(O)cc1 | – | – | 36 | 290 | – | 76 |
| Cc1ccc(NC(=O)CC(=O)Nc2ccc(C)cc2)cc1 | – | – | – | – | 66% | – |
| O=C(CCCCC(=O)Nc1ccc(O)cc1)Nc1ccc(O)cc1 | – | – | 26 | 230 | – | 67 |
| O=C(CC(=O)Nc1ccc(O)cc1)Nc1ccc(O)cc1 | – | 67 | 25 | 190 | – | – |
| O=C(CCC(=O)Nc1ccc(O)cc1)Nc1ccc(O)cc1 | – | 79 | – | 240 | 27% | – |
| O=C(CC(=O)Nc1cccc(O)c1)Nc1cccc(O)c1 | – | – | 86 | – | – | – |

Now from value to molecule:

| Control [1] | Oxygen consumption rate, % of control [2] [%] | Control [3] [%] | IC50 [4] [µM] | Control [5] | Control [6] [%] | SMILES |
| --- | --- | --- | --- | --- | --- | --- |
| – | – | 97 | – | – | – | CCCCC(C(=O)Nc1ccc(C)cc1)C(=O)Nc1ccc(C)cc1 |
| – | 64 | 48 | 420 | – | – | O=C(CC(=O)Nc1ccc(Cl)cc1)Nc1ccc(Cl)cc1 |
| – | – | – | – | Insoluble | 126 | CCCCC(C(=O)Nc1ccc([N+](=O)[O-])cc1)C(=O)Nc1ccc([N+](=O)[O-])cc1 |
| – | – | 55 | – | – | 65 | O=C(CC(=O)Nc1ccccc1)Nc1ccccc1 |
| Insoluble | – | – | – | – | 96 | CCCCC(C(=O)Nc1ccc(Cl)cc1)C(=O)Nc1ccc(Cl)cc1 |
| – | – | – | 150 | 31% | 57 | CCCCC(C(=O)Nc1ccc(O)cc1C)C(=O)Nc1ccc(O)cc1C |
